From PubChem BioAssay AID1204 (EPA DSSTox, 2008) come the findings set out here.

Records with an inconclusive call do not appear. Calls of active or inactive are those of the source.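 How the source made its calls: active means relative estrogen receptor binding affinity above 1E-5, where estradiol scores 100; inconclusive means weak binder, under half inhibition at top dose, or affinity below 1E-5; inactive means no binding seen, affinity zero.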

This data set relates to estrogen receptor (rat uterine cytosol). Kind of data set: DSSTox (NCTRER) National Center for Toxicological Research Estrogen Receptor Binding Database.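 On relative binding affinity: ratio of estradiol IC50 over compound IC50 times 100 so estradiol equals 100.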 To be noted: rat uterine cytosol ER competitive binding, RBA; for relative binding affinity: hits give high values. An excerpt: Researchers within FDA's National Center for Toxicological Research (NCTR) generated a database of experimental estrogen receptor binding results for the express purpose of developing improved QSAR models to predict ER binding affinities.The NCTR ER database is a structurally diverse set of natural, synthetic, and environmental estrogens covering most known estrogenic classes and spanning a wide range of biological activity. It represents the largest published ER binding database of same-assay results generated in a single laboratory. […] Information on the percent purity and purchasing source for all chemicals are not included in the DSSTox SDF, but can be obtained from the original NCTR ER Source database and Main Citations listed below. The main citation (Fang et al., 2001) surveys the NCTR ER database from a chemical class based, structure-activity relationship (SAR) perspective. Qualitative SAR characteristics of the NCTR ER database are discussed and a set of general hierarchical rules for identifying potential estrogens are presented. The DSSTox NCTRER SDF augments the original NCTR ER database with chemical class and SAR information abstracted from Fang et al. (2001). The DSSTox SDF file supplements the measured ER relative binding affinity for each chemical (ER_RBA) with chemical class assignment to one of 6 major estrogenic classes further divided into 20 subclasses (ChemClass_ERB), along with a qualitative activity measure, ActivityCategory_ER_RBA. A brief narrative SAR rationale pertaining to ER RBA patterns observed by Fang et al. (2001) for each of the 20 subclasses within the database are provided in the field, ActivityCategory_Rationale_ChemClass_ERB. The original NCTR ER database, from which the expanded DSSTox NCTRER was formed, is contained within a larger Endocrine Disruptor Knowledge Base (EDKB) accessible from the FDA Source Website. That website provides online access to a relational database comprised of in vitro and in vivo experimental data for about 2000 natural and synthetic compounds, much of this extracted from the literature and representing testing in many laboratories. Data are included for biological assays that measure estrogenic and androgenic activity. Estrogenic endpoints include in vitro assays for estrogen receptor competitive binding affinity, cell proliferation, and reporter-gene assays, and in vivo assays for uterotrophic activity (i.e., uterine weight gain and vaginal cornification). The database also contains a bibliography of over 1200 citations, many of which include abstracts.
Estrogen receptor relative binding affinity is determined using a competitive receptor binding assay as described in NCTRER Ref (Blair et al., 2000). Briefly, a chemical competes with radiolabeled E2 (i.e., estradiol) for binding to the ER in rat uterine cytosol and the concentration of chemical that causes 50% inhibition of E2 binding (i.e., IC50) is measured. The ER_RBA is calculated by dividing the IC50 of E2 (9X10-10M) by the IC50 of the competitor and multiplying by 100 (E2 RBA = 100). The validated assay tested 1nM E2 with concentrations of competitor ranging from 1nM to 1mM. The larger the ER_RBA values, the greater the binding affinity; ER_RBA > 100 means compound has greater binding affinity than natural ER ligand, E2. […] Activity Score is mapping of LOG_ER_RBA values (ER-RBA>1E-5), spanning activity range [MIN, MAX] onto Integer 20-100 Activity range, where 100 is highest potency and 20 is lowest active potency. If Activity Outcome is "active": Activity Score = 80 * INTEGER[(LOG_ER_RBA - MIN)/(MAX […] MIN)]. If Activity Outcome is "inconclusive" (i.e., slight binder): Activity Score = 5.

Where [1] appears, read: ChemClass_ERB: Diphenylmethanes Benzophenones.
Where [2] appears, read: ChemClass_ERB: Steroids Without aromatic A ring.
Where [3] appears, read: ChemClass_ERB: Phytoestrogens Chalconoids.
[4] abbreviates: ChemClass_ERB: Phytoestrogens Flavones.
[5] abbreviates: ChemClass_ERB: Phenols Parabens.
Setting [6] is: ChemClass_ERB: DES Triphenylethylenes.
The mark [7] stands for this setting: ChemClass_ERB: Phytoestrogens Mycoestrogens.
Where [8] appears, read: ChemClass_ERB: Steroids With aromatic A ring.
Where [9] appears, read: ChemClass_ERB: DES Hexestrol derivatives.
[10] abbreviates: ChemClass_ERB: Phytoestrogens Isoflavones.
The mark [11] stands for this setting: ChemClass_ERB: Diphenylmethanes Diphenolalkanes.
Setting [12] is: ChemClass_ERB: Diphenylmethanes DDTs.
The mark [13] stands for this setting: ChemClass_ERB: Phytoestrogens Flavanones.

Take `O=C(c1ccccc1O)c1ccccc1O`: the result under setting [1] was inactive.
As for `C[C@@H]1C[C@H]2[C@@H]3CCC4=CC(=O)C=C[C@]4(C)[C@@]3(F)[C@@H](O)C[C@]2(C)[C@@]1(O)C(=O)CO`, the result under setting [2] was inactive.
Consider `O=C(CCc1ccc(O)cc1)c1c(O)cc(O)cc1O`, for which, under setting [3], the relative binding affinity was 0.069%.
Take `O=c1cc(-c2ccc(O)cc2)oc2ccc(O)cc12`: the relative binding affinity under setting [4] is 0.151%.
As to `O=C(OCc1ccccc1)c1ccc(O)cc1`, the relative binding affinity under setting [5] is 0.00288%.
For `CCCCC(CC)COC(=O)CCCCC(=O)OCC(CC)CCCC` (configuration not stated), the outcome (ChemClass_ERB: Misc) was inactive.
Consider `CC/C(=C(\c1ccccc1)c1ccc(OCCN(C)C)cc1)c1ccc(O)cc1`, for which the relative binding affinity under setting [6] is 174%.
Turning to `OCCCCCCCCO`, under “ChemClass_ERB: Misc”, the result was inactive.
For the compound `Clc1ccc(-c2ccc(Cl)cc2)cc1`, the outcome (ChemClass_ERB: Biphenyls PCBs) was inactive.
Turning to `c1ccc2c(c1)OCCOCCOc1ccccc1OCCOCCO2`, for the setting “ChemClass_ERB: Misc”, the outcome was inactive.
Take `C[C@H](Cc1ccc(O)c(O)c1)[C@H](C)Cc1ccc(O)c(O)c1`: the relative binding affinity (ChemClass_ERB: Misc) was 0.0309%.
Regarding `C[C@H]1CCC[C@H](O)CCC/C=C/c2cc(O)cc(O)c2C(=O)O1`, the relative binding affinity under setting [7] is 42.7%.
`C[C@H]1CCC[C@H](O)CCCCCc2cc(O)cc(O)c2C(=O)O1`: the relative binding affinity under setting [7] was 30.2%.
Regarding `C[C@]12CC[C@H](O)C[C@@H]1CC[C@@H]1[C@@H]2CC[C@]2(C)[C@@H](O)CC[C@@H]12`, the relative binding affinity under setting [2] was 0.12%.
For `C[C@]12CC[C@@H]3c4ccccc4CC[C@H]3[C@@H]1CCC2=O`, the relative binding affinity under setting [8] is 0.0063%.
As to `ClC1=C(Cl)[C@@]2(Cl)[C@@H]3[C@@H](Cl)[C@H](Cl)C[C@@H]3C1(Cl)C2(Cl)Cl`, the result (ChemClass_ERB: Misc) was inactive.
For the compound `CC[C@@H]1c2ccc3cc(OC)ccc3c2CC[C@]1(C)C(=O)O`, the relative binding affinity (ChemClass_ERB: Misc) was 0.00181%.
In the case of `Oc1ccc(-c2ccccc2)cc1`, for the setting “ChemClass_ERB: Biphenyls nonchlorinated”, the relative binding affinity is 0.00091%.
In the case of `CCC(c1ccc(C)cc1)C(CC)c1ccc(O)cc1` (configuration not stated), the relative binding affinity under setting [9] was 3.98%.
Regarding `O=C(C(=O)c1ccc(O)cc1O)c1ccc(O)cc1O`, the relative binding affinity under setting [9] was 0.209%.
Take `CCCOC(=O)c1ccc(O)cc1`: under setting [5], the relative binding affinity was 0.0006%.
Take `Cc1cc(O)ccc1Cl`: the relative binding affinity (ChemClass_ERB: Phenols Alkyl) is 0.00041%.
Take `O=C(c1ccccc1)c1ccc(O)cc1O`: the relative binding affinity under setting [1] was 0.00245%.
For the compound `NCCc1ccc(O)c(O)c1`, where the note is “ChemClass_ERB: Misc”, the outcome was inactive.
With `O=c1c(-c2ccc(O)cc2)coc2cc(O[C@@H]3O[C@H](CO)[C@@H](O)[C@H](O)[C@H]3O)cc(O)c12`, the outcome under setting [10] was inactive.
For the compound `CC(C)(C)c1cc(Cc2cc(C(C)(C)C)c(O)c(C(C)(C)C)c2)cc(C(C)(C)C)c1O`, the outcome under setting [11] was inactive.
As to `O=C1CCC(N2C(=O)c3ccccc3C2=O)C(=O)N1` (configuration not stated), the result (ChemClass_ERB: Misc) was inactive.
For `COc1nc(NC(C)C)nc(NC(C)C)n1`, the outcome (ChemClass_ERB: Misc) was inactive.
On to `CCc1c(-c2ccc(OC)cc2)c(=O)oc2cc(O)ccc12`, for which the relative binding affinity (ChemClass_ERB: Phytoestrogens Coumestans) was 0.891%.
As for `O=S1OCC2C(CO1)C1(Cl)C(Cl)=C(Cl)C2(Cl)C1(Cl)Cl` (configuration not stated), the outcome (ChemClass_ERB: Misc) was inactive.
In the case of `O=c1cc(-c2ccccc2)oc2cc(O)c(O)c(O)c12`, the relative binding affinity under setting [4] is 0.0009%.
On to `CCNc1nc(Cl)nc(NCC)n1`, for which, where the note is “ChemClass_ERB: Misc”, the result was inactive.
Take `CCCCCCO`: for the setting “ChemClass_ERB: Misc”, the outcome was inactive.
The same measure, in the same setting: then `CCCCCCCCOC(=O)c1ccccc1C(=O)OCCCCCCCC`, with “inactive”.
For the compound `COc1ccc(C(c2ccc(OC)cc2)C(Cl)(Cl)Cl)cc1`, the result under setting [12] was inactive.
Turning to `Oc1ccc(Cc2ccc(O)cc2)cc1`, the relative binding affinity under setting [11] is 0.00095%.
On to `c1ccc2c(c1)ccc1c3ccccc3ccc21`, for which, for the setting “ChemClass_ERB: Misc”, the result was inactive.
Take `CC/C(=C(/c1ccc(OCCN(C)C)cc1)c1cccc(O)c1)c1ccccc1`: the relative binding affinity under setting [6] is 15.1%.
For the compound `O=c1cc(-c2ccccc2)oc2cc(O)cc(O)c12`, the outcome under setting [4] was inactive.
As to `CCC(C)c1ccccc1` (configuration not stated), the outcome (ChemClass_ERB: Misc) was inactive.
Turning to `Oc1c(Cl)cc(-c2cc(Cl)c(O)c(Cl)c2)cc1Cl`, where the note is “ChemClass_ERB: Biphenyls PCBs”, the relative binding affinity was 0.00056%.
Regarding `Oc1ccc(Cl)cc1Cc1cc(Cl)ccc1O`, under setting [11], the relative binding affinity is 0.0035%.
Turning to `O=c1c(O)c(-c2ccc(O)c(O)c2)oc2cc(O)ccc12`, the relative binding affinity under setting [4] was 0.00446%.
Turning to `O=C1CC(c2ccccc2)Oc2ccccc21` (configuration not stated), under setting [13], the outcome was inactive.
For the compound `CC[C@H](c1ccc(O)cc1)[C@@H](CC)c1ccc(O)cc1`, the relative binding affinity under setting [9] is 301%.
For `O=c1c(-c2ccc(O)cc2)coc2cc(O)ccc12`, the relative binding affinity under setting [10] was 0.022%.
`Oc1ccc(-c2cc(Cl)c(Cl)c(Cl)c2Cl)cc1`: under “ChemClass_ERB: Biphenyls PCBs”, the relative binding affinity is 0.23%.
Take `C[C@]12CC[C@@H]3c4ccc(O)cc4CC[C@H]3[C@@H]1CC[C@H]2O`: the relative binding affinity under setting [8] is 3.09%.
On to `CCOC(=O)c1ccc(O)cc1`, for which, under setting [5], the relative binding affinity was 0.0006%.
As to `Oc1ccc(C(c2ccc(O)cc2)C(Cl)(Cl)Cl)cc1`, under setting [12], the relative binding affinity is 0.251%.
For the compound `O=C(/C=C/c1ccc(O)cc1)c1ccc(O)cc1O`, under setting [3], the relative binding affinity is 0.055%.
On to `O=C(c1ccc(O)cc1)c1ccc(O)cc1`, for which the relative binding affinity (ChemClass_ERB: Diphenylmethanes Benzophenone) was 0.0035%.
As to `CCOC(=O)/C=C/c1ccccc1`, the outcome (ChemClass_ERB: Misc) was inactive.
As to `C/C(=C(/C)c1ccc(O)cc1)c1ccc(O)cc1`, the relative binding affinity (ChemClass_ERB: DES Derivatives) is 14.4%.
On to `O=C(/C=C/c1ccccc1)c1ccc(O)cc1`, for which, under setting [3], the relative binding affinity is 0.0037%.
`Clc1ccc(-c2ccc(Cl)cc2Cl)c(Cl)c1`: the result (ChemClass_ERB: Biphenyls PCBs) was inactive.
Take `O=C1CC(c2ccc(O)cc2)Oc2ccccc21` (configuration not stated): the relative binding affinity under setting [13] is 0.00223%.
With `Oc1ccccc1Cl`, the outcome (ChemClass_ERB: Phenols Alkyl) was inactive.
Turning to `O=c1cc(-c2ccccc2)oc2ccc(O)cc12`, the relative binding affinity under setting [4] is 0.00038%.
In the case of `O=C(O)c1ccccc1C(c1ccc(O)cc1)c1ccc(O)cc1`, the relative binding affinity under setting [11] was 0.00021%.
In the case of `C(=C(c1ccccc1)c1ccccc1)c1ccccc1`, the relative binding affinity under setting [6] is 0.00165%.
In the case of `C#C[C@]1(O)CC[C@H]2[C@@H]3CCc4cc(OC)ccc4[C@H]3CC[C@@]21C`, the relative binding affinity under setting [8] was 2.24%.
